The values that follow come from US20240325397A1, “USE OF COMBINATION THERAPY FOR TREATING CANCER” (Recurium IP Holdings, LLC, priority 2021, published 2024).

In series [1] the test system is tamoxifen resistant ZR-75-1 tumor cells (ZR-75-1R). In words: Single agent efficacy in ZR-75-1 tamoxifen resistant tumor model. Format: in vivo, mouse. The following applies: post 28 days treatment; Tamoxifen 100 mg/kg 5 days per week for three weeks; Compound (A) 80 mg/kg orally daily for 28 days; FIG. 4. The procedure:
Compound (A)'s efficacy as a single agent was evaluated in ZR-75-1 tamoxifen resistant tumor model. The tamoxifen resistant ZR-75-1 tumor cells (ZR-75-1R) were maintained in vitro as monolayer culture in RPMI1640 Medium supplemented with 10% fetal bovine serum and 10 μM tamoxifen at 37° C. in an atmosphere of 5% CO2 incubator. Each mouse was then inoculated subcutaneously on the right flank with 1×10^7 ZR-75-1R tumor cells in 100 μL RPMI-1640 Matrigel mixture (1:1 ratio) without serum for the tumor development. In addition, estradiol benzoate injection was delivered by s.c. (40 ug/20 uL, twice weekly). Mice were then randomized into 3 groups when mean tumor size reached 191 mm^3 and treatment was started. Tamoxifen was dosed at 100 mg/kg 5 days per week for three weeks, Compound (A) was orally dosed at 80 mg/kg daily for 28 days. Study endpoints included daily body weight, clinical observations, tumor volume. In FIG. 4, the top line is Tamoxifen (100 mg/kg), the middle line is vehicle, and the bottom line is Compound (A) (80 mg/kg). […] No other gross clinical abnormalities were observed during the treatment period and animal body loss was manageable by giving animals dosing holiday.

The subject of series [2] is MCF-7 tumor cells. The series is described as follows: Antitumor activity of Compound (A) as single agent in MCF-7 xenograft model. Format: in vivo, mouse. As to the method:
The antitumor activity of Compound (A) was assessed using the MCF-7 xenograft model. Each mouse was inoculated subcutaneously on the 2nd right mammary fat pad with 1.5×10^7 MCF-7 tumor cells in 200 μL DMEM Matrigel mixture (1:1 ratio) without serum for the tumor development. In addition, estradiol benzoate injection was delivered by s.c. (40 ug/20 uL, twice weekly). When mean tumor size reached 204 mm^3, animals were randomized into 2 groups (10 animals/group) and the treatments were initiated. Compound (A) or vehicle control was administered once daily by oral gavage and continued for 28-days. Study endpoints included daily body weight, clinical observations, tumor volume. […] In FIG. 3, the top line is vehicle, and the bottom line is Compound (A) (80 mg/kg qd×22 p.o).

The test system of the next series is HCC1428 tumor cells. The series is described as follows: Activity in mice bearing human HCC1428 breast cancer xenograft tumors. Format: in vivo. The procedure:
The activity of Compound (A) as evaluated in mice bearing human HCC1428 breast cancer xenograft tumors. Each mouse was inoculated subcutaneously at the right flank with HCC1428 tumor cells (1×10^7) in 0.2 mL mixture of PBS and Matrigel (PBS: Matrigel=1:1) for tumor development, which has been subcutaneously implanted with 17beta-estradiol tablets (0.18 mg, 90-day release) two days before cell implantation. Treatments were started on day 21 after tumor inoculation when the average tumor size reached approximately 185 mm^3. The animals were assigned into two groups using an excel-based randomization software performing stratified randomization based upon their tumor volumes. Each group consisted of 10 tumor bearing mice. The vehicle control or Compound (A) at 80 mg/kg was administrated once daily to the mice by oral gavage for 28 days. In FIG. 5, the top line is vehicle, and the bottom line is Compound (A).

Series [3] concerns MCF-7 tumor cells. In words: Compound (A) in combination with palbociclib in MCF-7 xenograft model. Format: in vivo, mouse. The following applies: 28 days; for tumor regression: Compound (A) 80/60 mg/kg, palbociclib 50 mg/kg, alone or in combination; for TGI: monotherapy: Compound (A) 80/60 mg/kg alone or palbociclib 50 mg/kg alone, FIG. 6. The procedure:
The antitumor activity of Compound (A) in combination with a CDK4/6 inhibitor, palbociclib was evaluated in the MCF-7 xenograft model. Each mouse was inoculated subcutaneously on the right flank with the MCF-7 tumor cells (1.5×10^7) in 200 μL DMEM Matrigel mixture (1:1 ratio) without serum for the tumor development. In addition, estradiol benzoate injection was delivered by s.c. (40 ug/20 uL, twice weekly). When mean tumor size reached 202 mm^3, mice were randomized into 5 groups (10 animals/group) and treatment was started. Animals were dosed with vehicle, 80/60 mg/kg Compound (A) alone, 50 mg/kg palbociclib alone, 80 mg/kg Compound (A) in combination with 50 mg/kg Palbociclib by sequential dosing schedule (alternated per two weeks) or Compound (A) at 80/60 mg/kg in combination with palbociclib at 50 mg/kg. Treatment periods were 28 days. In FIG. 6, the top line (indicated with circles) is vehicle. […] Furthermore, Compound (A) in combination with palbociclib induced around 55% tumor regression.

In another series the test system is MCF-7 cells. The series is described as follows: Compound (A) in combination with palbociclib at a lower dose in MCF-7 xenograft model. Format: in vivo, mouse. Conditions: Compound (A) 60 mg/kg, palbociclib 25 mg/kg, alone or in combination; FIG. 7. As to the method: The antitumor activity of Compound (A) in combination with a CDK4/6 inhibitor, palbociclib at a lower dose was evaluated in the MCF-7 xenograft model. Each mouse was inoculated subcutaneously on the 2nd right mammary fat pad with 1.5×10^7 MCF-7 cells in 200 μL DMEM Matrigel mixture (1:1 ratio) without serum for the tumor development. In addition, estradiol benzoate injection was delivered by s.c. (40 ug/20 uL, twice weekly). The treatments were started when mean tumor size reached 203 mm^3. Mice were randomized into 4 groups (8 mice per group) and treated with vehicle control, 60 mg/kg Compound (A) alone, 25 mg/kg Palbociclib alone, Compound (A) at 60 mg/kg in combination with 25 mg/kg palbociclib. Study endpoints included daily body weight, clinical observations, tumor volume.

Series [4] concerns palbociclib-resistant breast cancer cells (CTG-1207). The series is described as follows: Palbociclib-resistant breast cancer PDX model (CTG-1207). Format: in vivo, mice. The following applies: Compound (A) 80 mg/kg, palbociclib 50 mg/kg, alone or in combination; FIG. 10A. As to the method: The antitumor activity of Compound (A) in combination with palbociclib was further evaluated in a palbociclib-resistant breast cancer PDX model (CTG-1207). Mice were inoculated subcutaneously with palbociclib-resistant breast cancer cells in DMEM Matrigel mixture (1:1 ratio) without serum for tumor development. Once tumor size reached approximately 200 mm^3, mice were randomized into 4 groups (8 mice per group) and treated with vehicle control, 80 mg/kg Compound (A) alone, 50 mg/kg Palbociclib alone, or Compound (A) at 80 mg/kg in combination with 50 mg/kg palbociclib. Study endpoints included daily body weight, clinical observations, tumor volume.

For series [5], the system named is HER2+ JIMT-1 breast cancer cell line. In words: HER2+ JIMT-1 breast cancer xenograft, Study 1-Part 1. Format: in vivo. The following applies: Compound (A) 60 mg/kg p.o. qd × 28, trastuzumab 10 mg/kg i.p. qw × 4. The procedure: The HER2+ JIMT-1 breast cancer cell line was used for tumor xenograft inoculations and subsequent treatment. […] Treatment was started when mean tumor size reached 204 mm^3. Mice were then randomized into 5 groups and treatments were administered to the tumor-bearing mice accordingly to the study design in Table 2.

The test system is the same in series [6]. The series is described as follows: HER2+ JIMT-1 breast cancer xenograft, Study 1-Part 2 (high initial tumor burden). The following applies: Day 14 of second part; tumors approximately 1000 mm^3 at start; Compound (A) 60 mg/kg p.o. qd; trastuzumab 10 mg/kg i.p. qw; vs. vehicle. Format: in vivo, NOD/SCID mice.
[7] abbreviates: Compound (A) 80 mg/kg once daily p.o.
The mark [8] stands for this setting: Compound (A) 80 mg/kg once daily p.o. 28 days.

Take `CC/C(=C(\c1ccccc1)c1ccc(OCCN(C)C)cc1)c1ccccc1` [Tamoxifen, reference compound]: the “TGI (tumor growth inhibition)” value in series [1] is −47.9%.

Regarding `C=CCn1c(=O)c2cnc(Nc3ccc(N4CCN(C)CC4)cc3)nc2n1-c1ccc2c(n1)[C@@](O)(CC)CC2` [Compound (A)], in the series on MCF-7 tumor cells [2] (Compound (A) 80 mg/kg once daily by oral gavage, single agent, FIG. 3), the “inhibition of tumor growth” value is on record as 132.6%. In the series on MCF-7 tumor cells [2] (setting [7]), the clinical observations entry is recorded as “no adverse clinical observations” and the mean body weights entry is “no significant impact on mean body weights”. Further, the “TGI (tumor growth inhibition)” value in series [1] is reported as 69.9%. In addition, the “tumor growth inhibition (TGI)” value in the series with HCC1428 tumor cells (Compound (A) 80 mg/kg once daily by oral gavage for 28 days, FIG. 5) stood at 96.2%. In the series on HCC1428 tumor cells (setting [8]), the body weight loss entry was “no significant body weight loss” and the clinical observations result is reported as “no adverse clinical observations”. In addition, in the series with MCF-7 tumor cells [3], the tumor regression is 32.7% and the TGI result is “around 116%”. The TGI with MCF-7 cells was 48.6%. In addition, the “tumor growth / TGI (in words)” value in series [4] is “reduced tumor growth”. In addition, in series [5] (combination vs. either vehicle control), the “tumor growth inhibition (TGI) on Day 29 compared to respective vehicle controls” value is on record as 68%. In addition, in series [5] (Day 29, Vehicle A p.o.), the “TGI (%) vs. Vehicle A” value is 67.7%. Also, the “TGI (%) on Day 14” value in series [6] came out at 68.2%.

`CC(=O)c1c(C)c2cnc(Nc3ccc(N4CCNCC4)cn3)nc2n(C2CCCC2)c1=O` [palbociclib, reference compound]: in the series on MCF-7 tumor cells [3], the tumor regression is 39.1%. In addition, the TGI in the series with MCF-7 tumor cells [3] is on record as around 119%; in the series on MCF-7 cells it was 14.2%.
